Results: PubChem BioAssay (NCI)
Where “and” joins values, the source holds several entries; their conditions need not be identical. Equal values may be shown once.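 Protocol summary: plate cells (96-well), add compound at 5 concentrations, incubate 48 h, interpolate endpoints linearly. Here, GI50 denotes the concentration required for 50% inhibition of growth. TGI: total growth inhibition.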

How the values were obtained:
Experiment in all cases: inhibition of tumour cell growth, NCI panel, 48 h
BT-549 breast = test system: BT-549 breast
SN12C renal = test system: SN12C renal
NCI-H23 lung = test system: NCI-H23 lung
DU-145 prostate = test system: DU-145 prostate
IGROV1 ovarian = test system: IGROV1 ovarian
HOP-92 NSCLC = test system: HOP-92 NSCLC
U251 CNS = test system: U251 CNS
SK-OV-3 ovarian = test system: SK-OV-3 ovarian
SK-MEL-2 melanoma = test system: SK-MEL-2 melanoma
TK-10 renal = test system: TK-10 renal

SMILES	GI50 (BT-549 breast)	TGI (BT-549 breast)	GI50 (SN12C renal)	TGI (SN12C renal)	GI50 (NCI-H23 lung)	TGI (NCI-H23 lung)	GI50 (DU-145 prostate)	TGI (DU-145 prostate)	GI50 (IGROV1 ovarian)	TGI (IGROV1 ovarian)	GI50 (HOP-92 NSCLC)	TGI (HOP-92 NSCLC)	GI50 (U251 CNS)	TGI (U251 CNS)	GI50 (SK-OV-3 ovarian)	TGI (SK-OV-3 ovarian)	GI50 (SK-MEL-2 melanoma)	TGI (SK-MEL-2 melanoma)	GI50 (TK-10 renal)	TGI (TK-10 renal)
Cn1c(C(=O)c2ccncc2)cc2ccccc21	> 100 µM	> 100 µM	> 100 µM	> 100 µM	> 100 µM	> 100 µM	> 100 µM	> 100 µM	> 100 µM	> 100 µM	40.2 µM	> 100 µM	> 100 µM	> 100 µM	> 100 µM	> 100 µM	> 100 µM	> 100 µM	> 100 µM	> 100 µM
FC(F)(c1ccc2ncccc2c1)c1nnc2ccc(-c3ccncc3)nn12	53.7 µM	> 100 µM	37.1 µM	> 100 µM	> 100 µM	> 100 µM	> 100 µM	> 100 µM	49.4 µM	> 100 µM	18.3 µM	> 100 µM	95.2 µM	> 100 µM	> 100 µM	> 100 µM	> 100 µM	> 100 µM	73.1 µM	> 100 µM
O=C(/C=C/C12c3ccccc3C(c3ccccc31)C1C(=O)NC(=O)C12)c1ccc(Cl)cc1Cl (stereo not given)	1.66 µM	3.27 µM	1.77 µM	3.29 µM	2.02 µM	4.1 µM	1.83 µM	3.43 µM	1.97 µM	4.27 µM	1.5 µM	3.3 µM	1.68 µM	3.06 µM	2.4 µM	6.71 µM	1.9 µM	3.62 µM	1.9 µM	3.5 µM
COc1cc(F)c(F)c(Nc2ccc(I)cc2F)c1NS(=O)(=O)C1(C[C@H](O)CO)CC1	> 5.26 µM	> 10 µM	1.9 µM	> 10 µM	0.283 µM	> 10 µM	5.02 µM	> 10 µM	0.223 µM	> 5.56 µM	0.189 µM	1.68 µM	2.09 µM	> 10 µM	3.42 µM	> 10 µM	0.0416 µM	> 2.01 µM	0.135 µM	> 10 µM
O=C(NOC[C@H](O)CO)c1ccc(F)c(F)c1Nc1ccc(I)cc1F	10.8 µM and > 10 µM	> 31.4 µM		> 100 µM	0.0188 µM and 0.0537 µM	> 100 µM	11.3 µM and 1.67 µM	> 100 µM		> 100 µM	0.0377 µM and 0.0201 µM	0.613 µM and 0.43 µM	1.05 µM and 0.662 µM	> 100 µM		> 100 µM	< 0.01 µM and 0.00337 µM		0.0314 µM and 0.0174 µM	86.2 µM and > 10 µM
CCCCCCCCCCCCCCCCCC1=NC(C)(C)CN1CC(C)O (stereo not given)	19.7 µM	40.9 µM	10.5 µM	24.4 µM	12.7 µM	27.1 µM	3.66 µM	13.1 µM	10.1 µM	27.7 µM	3.94 µM	17.8 µM	4.89 µM	19.9 µM	18.8 µM	37 µM	15.6 µM	31 µM	20.9 µM	39 µM
CCOC(=O)Nc1nc2ccc(OC)cc2s1	> 100 µM	> 100 µM	> 100 µM	> 100 µM	> 100 µM	> 100 µM	> 100 µM	> 100 µM	> 100 µM	> 100 µM	> 100 µM	> 100 µM	> 100 µM	> 100 µM	> 100 µM	> 100 µM	> 100 µM	> 100 µM	> 100 µM	> 100 µM
COc1cc(OC)c(C(=O)/C=C/c2cc3c(cc2OCc2ccccc2)OC(C)(C)CC3)cc1CC=C(C)C	4.2 µM	12.3 µM	7.36 µM	> 25 µM	6.77 µM	> 25 µM	5.95 µM	> 25 µM	15 µM	> 25 µM	3.52 µM	19.9 µM	4.03 µM	10.8 µM	7.42 µM	> 25 µM	6.84 µM	> 25 µM	8.89 µM	19.6 µM
[C](#Cc1ccccc1)[Hg][C]#Cc1ccccc1	22.1 µM	43.2 µM	30.1 µM	73.3 µM	37.8 µM	> 100 µM	48.2 µM	> 100 µM	29.7 µM	97.5 µM	21.1 µM	47.5 µM	22.4 µM	43.9 µM	> 100 µM	> 100 µM	37.7 µM	> 100 µM	23.8 µM	50.7 µM
COc1ccc2c(=O)cc(-c3ccccc3)[nH]c2c1	0.56 µM	> 27.7 µM	3.16 µM	> 100 µM	1.25 µM	> 100 µM	1.24 µM	> 53.1 µM	0.578 µM	> 100 µM	0.378 µM	> 100 µM	0.707 µM	> 100 µM	1.17 µM	> 30.8 µM		> 100 µM	> 100 µM	> 100 µM
Cc1nc(-c2ccccc2)n2nc(NCCCN3CCOCC3)ncc12	> 25 µM	> 25 µM	> 25 µM	> 25 µM	> 25 µM	> 25 µM	22.7 µM	> 25 µM	13.8 µM	> 25 µM	10.6 µM	> 25 µM	> 25 µM	> 25 µM	6.1 µM	17.9 µM	10.5 µM	> 25 µM	19.1 µM	> 25 µM
CC(C)c1cnn2c(NCc3ccccc3)cc(NC[C@H]3CCNC[C@@H]3O)nc12	1.81 µM and 1.27 µM	4.4 µM and 3.08 µM	0.327 µM and 0.378 µM	10.5 µM and 6.49 µM	0.463 µM	2.98 µM	0.4 µM and 0.309 µM	11.4 µM and 9.62 µM	0.252 µM and 0.279 µM	11 µM and 10.3 µM	0.242 µM and 1.31 µM	4.22 µM and 5.54 µM	0.378 µM and 0.382 µM	10.7 µM and 10.4 µM	4.71 µM and 3.41 µM	15.1 µM and 16.5 µM	0.334 µM and 0.668 µM	1.63 µM and 2.15 µM	1.5 µM and 2.27 µM	10.4 µM and 10.9 µM
O=S(=O)(NCCNc1nccc(-c2c(-c3ccc(F)c(O)c3)nc3sccn23)n1)c1ccc(F)cc1	2.99 µM	23.4 µM	2.83 µM	71.5 µM	4.07 µM	22.4 µM	3.47 µM	29.2 µM	2.43 µM	7.96 µM	1.3 µM	6.86 µM	4.75 µM	> 100 µM	4.28 µM	75.7 µM	1.87 µM	12.9 µM	16.2 µM	96.7 µM
COc1ccc(-c2ccncc2)cc1C(N)=O	> 25 µM	> 25 µM	> 25 µM	> 25 µM	> 25 µM	> 25 µM	> 25 µM	> 25 µM	> 25 µM	> 25 µM	> 25 µM	> 25 µM	> 25 µM	> 25 µM	> 25 µM	> 25 µM	> 25 µM	> 25 µM	> 25 µM	> 25 µM
